How the values were obtained:
[1] = system: traumatized rats; test: Repeated application on elevated ICP in traumatized rats; assay type: in vivo, rat; settings: mannitol i.v. 0.125 g/kg/min, same time windows; FIG. 3
Experimental: Compound 1 was given 2 times with intermittent periods of 20 min at a i.v. dose of 1 mg/kg/min during 10 min, starting a first time 20 min after induction of severe head injury.
Mannitol was given i.v. in the same time windows as Compound 1 at a dose of 0.125 g/kg/min. The control animals received the solvent (containing 10% HP-β-CD, pH 4) only.
This effect is amplified after termination of each, infusion period.

[2] = system: Sprague-Dawley rats; test: Closed Head Injury (CHI) model, screening procedure (severe head injury); assay type: in vivo, rat
Text: (§1) A clinically relevant rat model for traumatic brain injury was used to test the compounds according to the invention. This model mimics several clinical features of traumatic brain injury, such as increased ICP, decreased cerebral perfusion pressure, morphologic alterations including diffuse axonal injury, neuronal necrosis and contusion, impairment of autoregulation of cerebral blood flow and reduction of brain oxygenation and was applied for screening drugs with ICP-lowering effects. Trauma was induced in intubated, isoflurane anesthetized (1.5% isoflurane in a mixture of 30% O2 and 70% N2O) Sprague-Dawley rats (380-400 g) stereotaxically positioned on a table mounted on 4 springs. A 400 g steel cylinder, protected with a 9 mm diameter silicon disc, was dropped on the unprotected skull from a height of either 70 cm or 50 cm (respectively ‘severe’ and ‘moderate’ head injury). The impact area was centered between bregma and lamda. ICP was recorded using a Codman microsensor probe inserted in the parietal cortex. In both severe and moderate head injuries the ICP increased immediately after trauma and remained elevated for several days. The severe head injury mode was used for the evaluation of pharmacological effects immediately after trauma (screening procedure). When survival and recovery from anesthesia was envisaged, the moderate head injury mode was applied. In pharmacological studies, animals with a pathological ICP between 12.5 and 35 mm Hg were included. The changes in ICP, mean arterial blood pressure (MABP) and cerebral perfusion pressure CPP (=[…]) were expressed as percentage of the initial value at onset of the treatment. Screening procedure: On a weekly base, 4 treated groups of 3 rats were compared with 3 saline treated animals. Since conventional statistical methods require a larger amount of animals, a sequential procedure was used. Sequential methods operate in different stages. At each stage, a group of animals was selected as homogeneous as possible. Animals were randomly allocated to either drugs or saline. The procedure allowed to make the decision of rejecting the drug, accepting the drug as active or to continue with a new group of animals in a next stage. Given the biological relevant level of activity that must be detected, the expected fraction of false positive and negative results was known and fixed. A sequential two-sample grouped rank test was used. […] Despite the variability in the individual data, the procedure consistently accepted reference treatments such as mannitol as active, while controls were rejected.

[3] = system: rat brain; test: Near-infrared spectroscopy (NIRS) of the rat brain: brain hemoglobin concentration and oxygenation after moderate head injury; assay type: in vivo; settings: 24 h after moderate head injury; i.v. 0.5 mg/kg.min 10 min then 0.1 mg/kg.min 45 min
Text: Near-infrared spectroscopy (NIRS) of the rat brain ‘in vivo’ allows to quantify non-invasively saturation of brain haemoglobin with oxygen (HbSat) and total brain haemoglobin concentration ([HbTot]). The latter is a measure for cerebral blood volume (CBV). Changes in the redox state of the mitochondrial enzyme cytochrome oxidase (CytOx), an indicator for tissue oxygenation, can also be monitored.
HbSat is not affected by compound 1 and the racemate (Comp. 1 and Comp. 2).

[4] = system: non-traumatised rats; test: ICP, MABP and CPP in anaesthetised non-traumatised rats; assay type: in vivo, rat; settings: i.v. 0.5 mg/kg/min during 10 minutes, followed by 0.1 mg/kg/min during 50 min
Experimental: The effect of Compound 2, Compound 1 and Racemate (comp. 1 and comp. 2) on ICP, MABP and CPP was tested in anaesthetised non-traumatised rats. The compounds were administered i.v. and the same dose was given as in traumatized rats (0.5 mg/kg/min during 10 minutes, followed by 0.1 mg/kg/min during 50 min).

[5] = system: Sprague-Dawley rats; test: Changes in relevant physiological variables during treatment after severe CHI in rats; assay type: in vivo, rat; settings: median average change over entire treatment period, % change of initial value; 0.5 mg/kg/min 10 min then 0.1 mg/kg/min 50 min, started 20 min after severe CHI; n = 10
Text: as §1
Treatment was started at 20 min after severe head injury and involved administering a dose of 0.5 mg/kg/min during 10 minutes, followed by 0.1 mg/kg/min during 50 min.

[6] = system: Sprague-Dawley rats; test: Continuous infusion of 0.1 mg/kg.min in the rat CHI model; assay type: in vivo
Text: as §1
The significant effect of compound 2 on MABP is much less pronounced when the compound is given at a continuous infusion of 0.1 mg/kg.min. […]

[7] = system: Sprague-Dawley rats; test: Influence of anaesthesia on effects on ICP and MABP 24 h after moderate trauma; assay type: in vivo, rat; settings: i.v. infusion 0.1 mg/kg.min 30 min, medians, n=6
Text: as §1
The effects of treatment with Compound 2 (i.v. infusion at a dose of 0.1 mg/kg.min during 30 min) at 24 h after moderate trauma were studied using different anesthetics (isoflurane, chloralhydrate, pentobarbital). […]

[8] = chloralhydrate 400 mg/kg i.p. anesthesia
[9] = pentobarbital 60 mg/kg i.p. anesthesia

In the case of `Cc1nc2sccn2c(=O)c1CCN1CCC(C2c3ccccc3C(c3ccccc3)Cn3c2nc2ccccc23)CC1Cc1ccccc1` (stereo not drawn) [Compound 7], the melting point is reported as 213.2 °C.

For `Cc1nc2sccn2c(=O)c1CCN1CCC(=C2c3ccccc3C=Cn3c2nc2ccccc23)CC1` [Compound 8, 6-[2-[4-(6H-benzimidazo[2,1-b][3]benzazepin-6-ylidene)-1-piperidinyl]ethyl]-7-methyl-5H-thiazolo[3,2-a]pyrimidin-5-one], the melting point was 178.8 °C.

Work on `Cc1nc2ccccn2c(=O)c1CCN1CCC(C2(C)c3ccccc3CCn3c2nc2ccccc23)CC1` (stereo not drawn) (hydrate or solvate) [Compound 6] yielded a melting point of 133.9 °C.

With `OC[C@@H](O)[C@@H](O)[C@H](O)[C@H](O)CO` [Mannitol] the “effect on ICP during infusion” value [1] was “lowering of ICP”, the “effect on blood pressure” value [1] was “increase in blood pressure during each infusion followed by a decrease in blood pressure after termination of each treatment” and the “mean reduction of ICP” value ([2]; i.v. mannitol 3 g over 45 min) was “about 20%”. The “Decision (based upon sequential statistical evaluation)” value ([2]; severe CHI rats, mannitol infusion of 67 mg/kg/min for 45 min, 5 separate tests) was “active”, the “Delta %: average change of the relative ICP from baseline over the treatment period” value ([2]; severe CHI rats, mannitol infusion of 67 mg/kg/min for 45 min, 5 separate tests, listed as Mannitol^1, 67 mg/kg) was −21.7% and the “Delta %: average change of the relative ICP from baseline over the treatment period” value ([2]; severe CHI rats, mannitol infusion of 67 mg/kg/min for 45 min, 5 separate tests, listed as Mannitol^2, 67 mg/kg) was −22.1%. The “Delta %: average change of the relative ICP from baseline over the treatment period” value ([2]; severe CHI rats, mannitol infusion of 67 mg/kg/min for 45 min, 5 separate tests, listed as Mannitol^3, 67 mg/kg) was −13.0%, the “Delta %: average change of the relative ICP from baseline over the treatment period” value ([2]; severe CHI rats, mannitol infusion of 67 mg/kg/min for 45 min, 5 separate tests, listed as Mannitol^4, 67 mg/kg) was −19.3% and the “Delta %: average change of the relative ICP from baseline over the treatment period” value ([2]; severe CHI rats, mannitol infusion of 67 mg/kg/min for 45 min, 5 separate tests, listed as Mannitol^5, 67 mg/kg) was −19.9%.

With `Cc1nc2n(C)c3ccccc3n2c(=O)c1CCN1CCC(C2c3ccccc3CCn3c2nc2ccccc23)CC1Cc1ccccc1` (racemic) [Racemate (comp. 1 and comp. 2), pyrimido[1,2-α]benzimidazol-4(10H)-one, 3-[2-[4-(11,12-dihydro-6H-benzimidazo[2,1-b][3]benzazepin-6-yl)-2-(phenylmethyl)-1-piperidinyl]ethyl]-2,10-dimethyl (E)-2-butenedioate (2:3) hydrate (1:1)] the “effect on saturation of brain haemoglobin with oxygen (HbSat)” value [3] was “not affected”, the “effect on total brain haemoglobin concentration [HbTot]” value [3] was “do not have a significant effect” and the “effect on ICP, MABP and CPP” value [4] was “comparable with those obtained in the traumatized animals”. The “CPP (%)” value [5] was 7.5%, the “ETCO2 (%)” value [5] was 2.4% and the “Heart rate(%)” value [5] was 5.6%. The “ICP (%)” value [5] was −19.1%, the “MABP (%)” value [5] was 0.6% and the “Resp. rate(%)” value [5] was 9.6%.

`Cc1nc2sccn2c(=O)c1CCN1CCC(=C2c3ccccc3CCn3c2nc2ccccc23)CC1` [Compound 5, 6-[2-[4-(11,12-dihydro-6H-benzimidazo [2,1-b][3]benzazepin-6-ylidene)-1-piperidinyl]ethyl]-7-methyl-5H-thiazolo [3,2-a]pyrimidin-5-one] showed a melting point of 224.9 °C.

For `Cc1nc2n(C)c3ccccc3n2c(=O)c1CCN1CCC(C2c3ccccc3CCn3c2nc2ccccc23)CC1Cc1ccccc1` (single isomer, unassigned) [Compound 2, (A)[(2α,4β)(A)] 3-[2-(4-(11,12-dihydro-6H-benzimidazo [2,1-b][3]benzazepin-6-yl)-2-(phenylmethyl)-1-piperidinyl]ethyl]-2,10-dimethyl-pyrimido[1,2-a]benzimidazol-4(10H)-one], the “effect on saturation of brain haemoglobin with oxygen (HbSat)” value [3] was “small but statistically significant reduction”, the “effect on total brain haemoglobin concentration [HbTot]” value [3] was “do not have a significant effect” and the “maximal reduction of ICP versus infusion preceded by loading dose of 5 mg/kg over 10 min” value [6] was “comparable”. For the same compound, the “time required to obtain maximal reduction of ICP (median)” value [6] was 30 min, the “increases in MABP observed” value ([6]; larger increases not observed) was at most 20% and the “median MABP increase at the end of the infusion” value ([6]; n=6) was 9%. For the same compound, the “effect on ICP, MABP and CPP” value [4] was “comparable with those obtained in the traumatized animals”, the “CPP (%)” value [5] was 24.2% and the “ETCO2 (%)” value [5] was −4.4%. The “Heart rate(%)” value [5] was −9.6%, the “ICP (%)” value [5] was −15.3% and the “MABP (%)” value [5] was 18.8%. The “Resp. rate(%)” value [5] was 6.6%, the “ICP decreases to % of initial value” [7, 8] was 75 % of initial value and the “MABP increases to % of initial value” [7, 8] was 110 % of initial value. For the same compound, the “ICP decreases to % of initial value” [7, 9] was 64 % of initial value and the “MABP increase up to % of initial value at the end of the infusion” value [7, 9] was 141 % of initial value.

— patent publication US7476662B2, “Substituted tetracyclic imidazole derivatives, processes for their preparation, pharmaceutical compositions comprising them and their use as a medicine” (Janssen Pharmaceutica N.V., priority 2001, dated 2009)
